Results: paper PMC10794144, “A novel antibiotic class targeting the lipopolysaccharide transporter” (Nature, 2024)
Converted amounts (≈) assume the structure as drawn. Like-named read-outs stand apart in the source and are kept apart here.

How the values were obtained:
CYP2D6 = CYP2D6 (Homo sapiens, UniProt P10635); assay: CYP inhibition; format: in vitro ADME
Adenosine A1 respetor = target: T1, Adenosine A1 respetor (Homo sapiens, UniProt P30542); assay: Off-target screening (CEREP); format: binding; settings: read-out: percent inhibition
T1 construct: purchased Eurofins CEREP SA
T1 sequence (P30542 1-326): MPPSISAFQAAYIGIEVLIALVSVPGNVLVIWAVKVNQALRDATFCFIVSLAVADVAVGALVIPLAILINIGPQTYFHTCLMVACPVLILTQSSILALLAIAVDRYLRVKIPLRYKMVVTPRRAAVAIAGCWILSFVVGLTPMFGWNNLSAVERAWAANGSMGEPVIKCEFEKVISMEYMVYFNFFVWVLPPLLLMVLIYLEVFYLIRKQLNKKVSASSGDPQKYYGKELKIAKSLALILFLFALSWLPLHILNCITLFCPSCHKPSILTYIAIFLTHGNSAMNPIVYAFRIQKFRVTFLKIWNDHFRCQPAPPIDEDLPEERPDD
Description: (§1) Supplementary Table 1 │ Off-target activity screening f or MCP compou nds […]
(§2) The assays given in the table above were conducted at Eurofins CEREP S A (Celle-Lévescault, France) and were run as single point measurements in duplicates in the presence of 10 µ M of the test compound and reported as percent inhibition of the radioligand signal or control enzymatic activity. n.d., not

Estrogen receptor alpha = target: T2, Estrogen receptor alpha (Homo sapiens, UniProt P03372); assay: Off-target screening (CEREP); format: binding; settings: read-out: percent inhibition
T2 construct: purchased Eurofins CEREP SA
T2 sequence (P03372 whole entry): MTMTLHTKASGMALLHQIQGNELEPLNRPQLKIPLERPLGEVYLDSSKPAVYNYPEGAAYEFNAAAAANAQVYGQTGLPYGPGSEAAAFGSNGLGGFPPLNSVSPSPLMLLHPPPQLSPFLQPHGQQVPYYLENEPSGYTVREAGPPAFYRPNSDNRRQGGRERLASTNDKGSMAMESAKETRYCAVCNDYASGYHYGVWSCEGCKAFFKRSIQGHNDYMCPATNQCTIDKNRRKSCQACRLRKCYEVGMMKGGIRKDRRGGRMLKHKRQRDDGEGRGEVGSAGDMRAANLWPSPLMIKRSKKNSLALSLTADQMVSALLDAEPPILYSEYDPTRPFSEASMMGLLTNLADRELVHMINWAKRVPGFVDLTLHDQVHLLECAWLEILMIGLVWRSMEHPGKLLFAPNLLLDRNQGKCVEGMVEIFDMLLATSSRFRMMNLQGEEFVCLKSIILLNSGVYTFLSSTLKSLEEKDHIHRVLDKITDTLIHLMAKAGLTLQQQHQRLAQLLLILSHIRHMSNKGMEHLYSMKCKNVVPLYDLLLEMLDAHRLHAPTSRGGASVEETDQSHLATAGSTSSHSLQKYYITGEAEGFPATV
Description: as §1, §2

5-HT transporter = target: T3, 5-HT transporter (Homo sapiens, UniProt P31645); assay: Off-target screening (CEREP); format: binding; settings: read-out: percent inhibition
T3 construct: purchased Eurofins CEREP SA
T3 sequence (P31645 whole entry): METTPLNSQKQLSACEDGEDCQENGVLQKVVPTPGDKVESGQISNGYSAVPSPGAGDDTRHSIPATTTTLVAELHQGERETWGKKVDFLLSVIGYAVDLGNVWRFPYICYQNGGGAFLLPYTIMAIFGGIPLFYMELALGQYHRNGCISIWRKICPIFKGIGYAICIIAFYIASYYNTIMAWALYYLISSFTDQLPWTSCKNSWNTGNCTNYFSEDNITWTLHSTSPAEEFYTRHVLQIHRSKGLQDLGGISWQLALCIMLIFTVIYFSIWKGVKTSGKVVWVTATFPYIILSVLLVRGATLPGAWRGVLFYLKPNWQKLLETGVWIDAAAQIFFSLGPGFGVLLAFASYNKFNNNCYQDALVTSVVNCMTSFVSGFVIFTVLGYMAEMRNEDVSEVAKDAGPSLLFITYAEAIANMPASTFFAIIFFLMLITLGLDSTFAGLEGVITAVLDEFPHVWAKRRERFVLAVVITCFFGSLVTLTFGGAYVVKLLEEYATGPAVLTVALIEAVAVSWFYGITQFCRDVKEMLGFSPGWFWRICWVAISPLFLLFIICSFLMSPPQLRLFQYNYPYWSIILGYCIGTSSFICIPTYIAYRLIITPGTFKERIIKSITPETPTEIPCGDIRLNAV
Description: as §1, §2

Dopamine D2 receptor = target: T4, Dopamine D2 receptor (Homo sapiens, UniProt P14416); assay: Off-target screening (CEREP); format: binding; settings: read-out: percent inhibition
T4 construct: purchased Eurofins CEREP SA
T4 sequence (P14416 whole entry): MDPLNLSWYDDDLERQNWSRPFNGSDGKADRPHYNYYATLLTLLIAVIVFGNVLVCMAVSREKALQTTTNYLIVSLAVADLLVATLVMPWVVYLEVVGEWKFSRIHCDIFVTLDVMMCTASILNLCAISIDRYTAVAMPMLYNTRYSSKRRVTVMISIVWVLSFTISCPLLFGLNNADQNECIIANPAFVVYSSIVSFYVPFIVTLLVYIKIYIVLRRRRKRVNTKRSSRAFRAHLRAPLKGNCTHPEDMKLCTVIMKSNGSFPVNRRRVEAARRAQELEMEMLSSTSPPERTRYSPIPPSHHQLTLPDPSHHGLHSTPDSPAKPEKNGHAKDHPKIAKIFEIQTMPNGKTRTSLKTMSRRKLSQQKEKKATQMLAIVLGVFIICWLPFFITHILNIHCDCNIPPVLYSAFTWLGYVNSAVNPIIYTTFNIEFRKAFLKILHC
Description: as §1, §2

Adenosine A3 respetor = target: T5, Adenosine A3 respetor (Homo sapiens, UniProt P0DMS8); assay: Off-target screening (CEREP); format: binding; settings: read-out: percent inhibition
T5 construct: purchased Eurofins CEREP SA
T5 sequence (P0DMS8 1-318): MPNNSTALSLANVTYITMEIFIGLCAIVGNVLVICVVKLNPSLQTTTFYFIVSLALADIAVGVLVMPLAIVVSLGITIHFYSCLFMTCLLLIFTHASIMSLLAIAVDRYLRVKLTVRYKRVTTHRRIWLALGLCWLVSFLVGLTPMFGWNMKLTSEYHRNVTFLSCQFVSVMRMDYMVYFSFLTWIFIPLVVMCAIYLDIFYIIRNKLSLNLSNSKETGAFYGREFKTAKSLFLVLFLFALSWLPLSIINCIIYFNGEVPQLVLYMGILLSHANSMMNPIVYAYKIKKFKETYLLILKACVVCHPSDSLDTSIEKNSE
Description: as §1, §2

Muscarinic receptor M1 = target: T6, Muscarinic receptor M1 (Homo sapiens, UniProt P11229); assay: Off-target screening (CEREP); format: binding; settings: read-out: percent inhibition
T6 construct: purchased Eurofins CEREP SA
T6 sequence (P11229 1-460): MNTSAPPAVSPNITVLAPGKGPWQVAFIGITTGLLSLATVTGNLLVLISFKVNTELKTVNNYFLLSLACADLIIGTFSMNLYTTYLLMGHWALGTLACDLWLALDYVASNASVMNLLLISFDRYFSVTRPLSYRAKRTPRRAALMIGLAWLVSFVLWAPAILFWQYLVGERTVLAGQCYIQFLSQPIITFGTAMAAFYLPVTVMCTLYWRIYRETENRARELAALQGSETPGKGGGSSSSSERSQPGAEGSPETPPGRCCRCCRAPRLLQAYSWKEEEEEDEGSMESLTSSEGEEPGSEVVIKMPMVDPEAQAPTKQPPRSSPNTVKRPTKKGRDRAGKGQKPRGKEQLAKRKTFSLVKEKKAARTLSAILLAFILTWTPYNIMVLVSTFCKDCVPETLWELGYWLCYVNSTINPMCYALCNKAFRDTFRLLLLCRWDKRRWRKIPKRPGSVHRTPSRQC
Description: as §1, §2

P. aeruginosa ATCC 27853 = assay: microbe, parasite or virus in culture; settings: for MIC: Pseudomonas aeruginosa
In short: (§3)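 Broth microdilution per CLSI M07/M100, with inocula diluted from a 0.5 McFarland suspension in CAMHB, or LB for A. baylyi. MIC was read as the lowest concentration inhibiting growth by eye or beyond which OD600 stopped decreasing.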

[1] = test system: K. pneumoniae ATCC 700603; assay: microbe, parasite or virus in culture; settings: for MIC: Klebsiella pneumoniae
In short: as §3

CYP2C9 = CYP2C9 (Homo sapiens, UniProt P11712); assay: CYP inhibition; format: in vitro ADME
CYP2C9, sequence (P11712 whole entry): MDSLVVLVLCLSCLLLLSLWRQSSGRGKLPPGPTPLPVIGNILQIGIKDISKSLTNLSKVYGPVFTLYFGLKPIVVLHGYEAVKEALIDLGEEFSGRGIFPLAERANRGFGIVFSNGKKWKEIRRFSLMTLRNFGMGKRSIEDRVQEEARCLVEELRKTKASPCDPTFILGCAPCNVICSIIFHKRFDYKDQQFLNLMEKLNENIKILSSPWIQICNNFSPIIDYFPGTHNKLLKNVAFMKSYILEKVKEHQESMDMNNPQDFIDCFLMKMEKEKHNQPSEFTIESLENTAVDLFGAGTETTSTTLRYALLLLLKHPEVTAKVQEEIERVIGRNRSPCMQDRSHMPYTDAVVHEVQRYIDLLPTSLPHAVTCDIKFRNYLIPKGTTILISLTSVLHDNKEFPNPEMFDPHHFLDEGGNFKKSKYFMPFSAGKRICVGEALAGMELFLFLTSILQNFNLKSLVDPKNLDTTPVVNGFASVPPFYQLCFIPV

[2] = test system: Nicotinic receptor, neuronal; assay: Off-target screening (CEREP); format: binding, human; settings: 10 µM, duplicates
Description: as §1, §2

[3] = test system: Nicotinic receptor, muscle; assay: Off-target screening (CEREP); format: binding, human; settings: 10 µM, duplicates
Description: as §1, §2

CYP2D6, sequence (P10635 whole entry): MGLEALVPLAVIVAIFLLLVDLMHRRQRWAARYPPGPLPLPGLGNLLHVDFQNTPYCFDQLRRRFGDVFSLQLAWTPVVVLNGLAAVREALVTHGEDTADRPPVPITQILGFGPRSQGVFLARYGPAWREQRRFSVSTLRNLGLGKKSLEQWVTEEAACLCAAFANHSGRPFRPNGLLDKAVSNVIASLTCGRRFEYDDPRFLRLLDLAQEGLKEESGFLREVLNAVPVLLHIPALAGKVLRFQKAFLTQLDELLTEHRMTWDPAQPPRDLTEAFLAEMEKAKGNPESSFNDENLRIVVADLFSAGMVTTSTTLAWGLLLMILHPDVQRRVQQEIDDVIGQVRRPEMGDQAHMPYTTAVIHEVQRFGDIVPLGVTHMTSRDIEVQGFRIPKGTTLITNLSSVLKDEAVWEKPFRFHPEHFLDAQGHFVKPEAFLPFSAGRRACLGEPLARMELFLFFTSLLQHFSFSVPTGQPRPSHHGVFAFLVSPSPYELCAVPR

Compound: CN1C(=O)[C@H](CCCN)NC(=O)[C@H](CCCN)NCc2ccccc2Sc2ccccc2CNC(=O)[C@@H]1Cc1c[nH]c2ccccc12 [RO7036668]
- CYP inh. (2D6) (CYP2D6): > 50 µM
- inhibition at 10 µM (Adenosine A1 respetor; 10 µM, duplicates): 1%
- inhibition at 10 µM (Estrogen receptor alpha; 10 µM, duplicates): 24%
- inhibition at 10 µM (5-HT transporter; 10 µM, duplicates): 13%
- inhibition at 10 µM (Dopamine D2 receptor; 10 µM, duplicates): 74%
- inhibition at 10 µM (Adenosine A3 respetor; 10 µM, duplicates): 32%
- inhibition at 10 µM (Muscarinic receptor M1; 10 µM, duplicates): 26%
- MIC (P. aeruginosa ATCC 27853; ATCC27853, CAMHB, mode of at least three replicates (RO7036668 one replicate)): > 64 µg/mL
- MIC ([1]; ATCC700603, CAMHB, mode of at least three replicates (RO7036668 one replicate)): > 64 µg/mL
- MIC 100% ([1]; Study ROC004): >64 µg/mL
- CYP inh. (2C9) (CYP2C9): > 50 µM

Compound: CN1C(=O)[C@H](CCCCN)NC(=O)[C@H](CCCN)NCc2cccnc2Sc2c(Cl)ccc(Cl)c2CNC(=O)[C@@H]1Cc1c[nH]c2ccccc12 [RO7075573]
- CYP inh. (2D6) (CYP2D6): > 50 µM
- inhibition at 10 µM (Adenosine A1 respetor): -10%
- inhibition at 10 µM (Estrogen receptor alpha): -3%
- inhibition at 10 µM (5-HT transporter): 16%
- inhibition at 10 µM (Dopamine D2 receptor): 28%
- inhibition at 10 µM (Adenosine A3 respetor): 11%
- inhibition at 10 µM (Muscarinic receptor M1): 20%
- percent inhibition [2]: -7%
- percent inhibition [3]: 5%
- MIC (P. aeruginosa ATCC 27853; ATCC27853): > 64 µg/mL
- MIC 100% (P. aeruginosa ATCC 27853; Study LGC281440): 64 µg/mL (≈ 86.5 µM)
- MIC 100% (P. aeruginosa ATCC 27853; Study LGC282160): >64 µg/mL
- MIC 100% (P. aeruginosa ATCC 27853; Study LGC284879): >64 µg/mL
- MIC 100% (P. aeruginosa ATCC 27853; Study LGC285582): >64 µg/mL
- MIC 100% (P. aeruginosa ATCC 27853; Study LGC286210): 64 µg/mL (≈ 86.5 µM)
- MIC 100% (P. aeruginosa ATCC 27853; Study LGC293598): >64 µg/mL
- MIC 100% (P. aeruginosa ATCC 27853; Study LGC294355): >64 µg/mL
- MIC 100% (P. aeruginosa ATCC 27853; Study LGC295147): 64 µg/mL (≈ 86.5 µM)
- MIC 100% (P. aeruginosa ATCC 27853; Study LGC296813): 64 µg/mL (≈ 86.5 µM)
- MIC 100% (P. aeruginosa ATCC 27853; Study LGC299544): >64 µg/mL
- MIC 100% (P. aeruginosa ATCC 27853; Study LGC301026): >64 µg/mL
- MIC 100% (P. aeruginosa ATCC 27853; Study LGC308175): >64 µg/mL
- MIC 100% (P. aeruginosa ATCC 27853; Study ROC010): >64 µg/mL
- MIC 100% (P. aeruginosa ATCC 27853; Study ROC012): >64 µg/mL
- MIC ([1]; ATCC700603): > 64 µg/mL
- MIC 100% ([1]; Study LGC281440): 32 µg/mL (≈ 43.3 µM)
- MIC 100% ([1]; Study LGC282160): >64 µg/mL
- MIC 100% ([1]; Study LGC284879): >64 µg/mL
- MIC 100% ([1]; Study LGC285582): >64 µg/mL
- MIC 100% ([1]; Study LGC286210): >64 µg/mL
- MIC 100% ([1]; Study LGC293598): >64 µg/mL
- MIC 100% ([1]; Study LGC294355): >64 µg/mL
- MIC 100% ([1]; Study LGC295147): >64 µg/mL
- MIC 100% ([1]; Study LGC296813): >64 µg/mL
- MIC 100% ([1]; Study LGC299544): >64 µg/mL
- MIC 100% ([1]; Study LGC301026): >64 µg/mL
- MIC 100% ([1]; Study LGC308175): >64 µg/mL
- MIC 100% ([1]; Study ROC010): >64 µg/mL
- MIC 100% ([1]; Study ROC012): >64 µg/mL
- CYP inh. (2C9) (CYP2C9): > 50 µM
- Ames (Ames): Negative
